Consider 25 substances from the OligoGym collection.

HELM strings list units from the 5' end as sugar, base in round brackets, then linkage (d deoxyribose, r ribose, m 2'-O-methyl, p phosphodiester). Strings are as the collection lists them; they lack the last nucleoside at the 3' end of the tested compound. [moe] = 2'-O-(2-methoxyethyl) (MOE); [sp] = phosphorothioate linkage; [m5C] = 5-methylcytosine

The target of this data set is GFAP. Put plainly: mouse, dose not given. The conditions noted are these: ASO.
For “RNA1{[moe](G)[sp].[moe]([m5C])p.[moe](T)p.[moe](T)p.d(T)[sp].d(T)[sp].d(G)[sp].d([m5C])[sp].d([m5C])[sp].d([m5C])[sp].d([m5C])[sp].d([m5C])[sp].d(T)[sp].d(G)[sp].[moe](T)p.[moe](A)p.[moe](G)p.[moe](T)[sp].[moe](G)}$$$$ (last 3' nucleoside missing)”, the 3 h FOB score was 3 score 0-7. “RNA1{[moe](G)[sp].[moe]([m5C])p.[moe](T)p.[moe]([m5C])p.[moe]([m5C])[sp].d([m5C])[sp].d(A)[sp].d([m5C])[sp].d(A)[sp].d([m5C])[sp].d(T)[sp].d(A)[sp].d([m5C])[sp].d(A)[sp].d(T)[sp].[moe](A)p.[moe](T)p.[moe](A)[sp].[moe](A)}$$$$ (last 3' nucleoside missing)”: the 3 h FOB score came out at 2 score 0-7. “RNA1{[moe](G)[sp].[moe]([m5C])p.[moe]([m5C])p.[moe](A)p.[moe](A)[sp].d(A)[sp].d(T)[sp].d([m5C])[sp].d([m5C])[sp].d([m5C])[sp].d([m5C])[sp].d(T)[sp].d([m5C])[sp].d(T)[sp].d(T)[sp].[moe]([m5C])p.[moe]([m5C])p.[moe]([m5C])[sp].[moe](A)}$$$$ (last 3' nucleoside missing)” had a 3 h FOB score of 0 score 0-7. Substance “RNA1{[moe](G)[sp].[moe]([m5C])p.[moe]([m5C])p.[moe](A)p.[moe](G)p.[moe](T)p.d(G)[sp].d(T)[sp].d([m5C])[sp].d(T)[sp].d(T)[sp].d([m5C])[sp].d(A)[sp].d([m5C])[sp].d(T)[sp].d(T)[sp].[moe](T)p.[moe](G)[sp].[moe]([m5C])}$$$$ (last 3' nucleoside missing)” had a 3 h FOB score of 1 score 0-7. To “RNA1{[moe](G)[sp].[moe]([m5C])p.[moe]([m5C])p.[moe](A)p.[moe](T)[sp].d(T)[sp].d(T)[sp].d(A)[sp].d(T)[sp].d([m5C])[sp].d(T)[sp].d(G)[sp].d(T)[sp].[moe](G)p.[moe]([m5C])p.[moe](T)[sp].[moe](T)}$$$$ (last 3' nucleoside missing)” belongs 1 score 0-7; to “RNA1{[moe](G)[sp].[moe]([m5C])p.[moe]([m5C])p.[moe](A)p.[moe](T)[sp].d(T)[sp].d(T)[sp].d(A)[sp].d(T)[sp].d([m5C])[sp].d(T)[sp].d(G)[sp].d(T)[sp].d(G)[sp].d([m5C])[sp].[moe](T)p.[moe](T)p.[moe](T)[sp].[moe](A)}$$$$ (last 3' nucleoside missing)”, 6 score 0-7.

“RNA1{[moe](G)[sp].[moe]([m5C])p.[moe]([m5C])p.[moe](T)p.[moe](T)[sp].d([m5C])[sp].d([m5C])[sp].d([m5C])[sp].d(T)[sp].d(T)[sp].d(T)[sp].d([m5C])[sp].d([m5C])[sp].d(T)[sp].d(G)[sp].[moe](T)p.[moe]([m5C])p.[moe](T)[sp].[moe](G)}$$$$ (last 3' nucleoside missing)” came in with a 3 h FOB score of 5 score 0-7. With “RNA1{[moe](T)[sp].[moe](A)p.[moe](G)p.[moe](T)p.[moe]([m5C])p.d(A)[sp].d(G)[sp].d([m5C])[sp].d([m5C])[sp].d(T)[sp].d(G)[sp].d(G)[sp].d(T)[sp].d(T)[sp].d(A)[sp].[moe](G)p.[moe]([m5C])p.[moe]([m5C])[sp].[moe](T)}$$$$ (last 3' nucleoside missing)”, the 3 h FOB score is 4 score 0-7. To “RNA1{[moe](T)[sp].[moe](A)p.[moe](G)p.[moe](T)p.d([m5C])[sp].d(A)[sp].d(G)[sp].d([m5C])[sp].d([m5C])[sp].d(T)[sp].d(G)[sp].d(G)[sp].d(T)[sp].d(T)[sp].[moe](A)p.[moe](G)p.[moe]([m5C])p.[moe]([m5C])[sp].[moe](T)}$$$$ (last 3' nucleoside missing)” belongs 3 score 0-7. To “RNA1{[moe](T)[sp].[moe](A)p.[moe](T)p.[moe](T)p.[moe](A)[sp].d(G)[sp].d(G)[sp].d(A)[sp].d(T)[sp].d([m5C])[sp].d([m5C])[sp].d([m5C])[sp].d(A)[sp].[moe](T)p.[moe]([m5C])p.[moe](T)[sp].[moe](A)}$$$$ (last 3' nucleoside missing)” belongs 3 score 0-7; to “RNA1{[moe](T)[sp].[moe](A)p.[moe](T)p.[moe]([m5C])p.[moe](T)[sp].d(G)[sp].d(T)[sp].d(G)[sp].d([m5C])[sp].d(T)[sp].d(T)[sp].d(T)[sp].d(A)[sp].[moe](G)p.[moe](T)p.[moe](G)[sp].[moe](A)}$$$$ (last 3' nucleoside missing)”, 3 score 0-7.

Regarding “RNA1{[moe](T)[sp].[moe](A)p.[moe]([m5C])p.[moe](A)p.[moe](T)[sp].d([m5C])[sp].d([m5C])[sp].d([m5C])[sp].d([m5C])[sp].d(T)[sp].d(T)[sp].d(T)[sp].d([m5C])[sp].d(T)[sp].d([m5C])[sp].[moe](T)p.[moe]([m5C])p.[moe]([m5C])[sp].[moe](T)}$$$$ (last 3' nucleoside missing)”, the 3 h FOB score came out at 1 score 0-7. To “RNA1{[moe](T)[sp].[moe](G)p.[moe](A)p.[moe](G)p.[moe](A)[sp].d(T)[sp].d(A)[sp].d(T)[sp].d([m5C])[sp].d(T)[sp].d(T)[sp].d(G)[sp].d(T)[sp].d(G)[sp].d(A)[sp].[moe]([m5C])p.[moe]([m5C])p.[moe](T)[sp].[moe](T)}$$$$ (last 3' nucleoside missing)” belongs 6 score 0-7. Then “RNA1{[moe](T)[sp].[moe](G)p.[moe](A)p.[moe](G)p.[moe](G)[sp].d([m5C])[sp].d(T)[sp].d(T)[sp].d(T)[sp].d(T)[sp].d(G)[sp].d(A)[sp].d(G)[sp].d(A)[sp].d(T)[sp].[moe](A)p.[moe](T)p.[moe]([m5C])[sp].[moe](T)}$$$$ (last 3' nucleoside missing)”, with 3 score 0-7; and “RNA1{[moe](T)[sp].[moe](G)p.[moe](A)p.[moe](G)p.[moe](T)[sp].d(T)[sp].d(T)[sp].d([m5C])[sp].d(T)[sp].d(T)[sp].d(G)[sp].d(T)[sp].d(T)[sp].d(A)[sp].d(G)[sp].[moe](T)p.[moe](T)p.[moe](G)[sp].[moe](G)}$$$$ (last 3' nucleoside missing)”, with 6 score 0-7. “RNA1{[moe](T)[sp].[moe](G)p.[moe](A)p.[moe](G)p.[moe](T)[sp].d([m5C])[sp].d(T)[sp].d([m5C])[sp].d(A)[sp].d(G)[sp].d(T)[sp].d(T)[sp].d(T)[sp].d(T)[sp].d([m5C])[sp].[moe]([m5C])p.[moe](T)p.[moe]([m5C])[sp].[moe]([m5C])}$$$$ (last 3' nucleoside missing)” showed a 3 h FOB score of 0 score 0-7.

Consider “RNA1{[moe](T)[sp].[moe](G)p.[moe](A)p.[moe]([m5C])p.[moe](T)p.[moe](A)p.d(T)[sp].d([m5C])[sp].d(T)[sp].d(A)[sp].d(G)[sp].d(G)[sp].d(A)[sp].d(T)[sp].d(T)[sp].d(T)[sp].[moe](G)p.[moe](G)[sp].[moe]([m5C])}$$$$ (last 3' nucleoside missing)”, for which the 3 h FOB score came to 2 score 0-7. Then “RNA1{[moe](T)[sp].[moe](G)p.[moe](A)p.[moe]([m5C])p.[moe](T)p.d(A)[sp].d(T)[sp].d([m5C])[sp].d(T)[sp].d(A)[sp].d(G)[sp].d(G)[sp].d(A)[sp].d(T)[sp].d(T)[sp].[moe](T)p.[moe](G)p.[moe](G)[sp].[moe]([m5C])}$$$$ (last 3' nucleoside missing)”, with 3 score 0-7. “RNA1{[moe](T)[sp].[moe](G)p.[moe](A)p.[moe]([m5C])p.[moe]([m5C])[sp].d(T)[sp].d(G)[sp].d(T)[sp].d(G)[sp].d(A)[sp].d([m5C])[sp].d(T)[sp].d(A)[sp].d(T)[sp].d([m5C])[sp].[moe](T)p.[moe](A)p.[moe](G)[sp].[moe](G)}$$$$ (last 3' nucleoside missing)” displayed a 3 h FOB score of 5 score 0-7. As to “RNA1{[moe](T)[sp].[moe](G)p.[moe](G)p.[moe](T)p.[moe](G)p.[moe]([m5C])p.d(T)[sp].d(T)[sp].d(T)[sp].d(T)[sp].d(G)[sp].d([m5C])[sp].d([m5C])[sp].d([m5C])[sp].d([m5C])[sp].d([m5C])[sp].[moe](T)p.[moe](G)[sp].[moe](T)}$$$$ (last 3' nucleoside missing)”, the 3 h FOB score turned out to be 1 score 0-7.

“RNA1{[moe](T)[sp].[moe](G)p.[moe](G)p.[moe](T)p.[moe](G)p.d([m5C])[sp].d(T)[sp].d(T)[sp].d(T)[sp].d(T)[sp].d(G)[sp].d([m5C])[sp].d([m5C])[sp].d([m5C])[sp].d([m5C])[sp].[moe]([m5C])p.[moe](T)p.[moe](G)[sp].[moe](T)}$$$$ (last 3' nucleoside missing)” returned a 3 h FOB score of 0 score 0-7. Then “RNA1{[moe](T)[sp].[moe](G)p.[moe](G)p.[moe](T)p.[moe]([m5C])p.d([m5C])[sp].d(T)[sp].d(A)[sp].d(A)[sp].d(A)[sp].d(T)[sp].d(A)[sp].d(T)[sp].d(T)[sp].d([m5C])[sp].[moe](T)p.[moe](A)p.[moe](G)[sp].[moe](T)}$$$$ (last 3' nucleoside missing)”, with 1 score 0-7. Then “RNA1{[moe](T)[sp].[moe](G)p.[moe](G)p.[moe](T)p.d(G)[sp].d([m5C])[sp].d(T)[sp].d(T)[sp].d(T)[sp].d(T)[sp].d(G)[sp].d([m5C])[sp].d([m5C])[sp].d([m5C])[sp].[moe]([m5C])p.[moe]([m5C])p.[moe](T)p.[moe](G)[sp].[moe](T)}$$$$ (last 3' nucleoside missing)”, with 1 score 0-7; and “RNA1{[moe](T)[sp].[moe](G)p.[moe](G)p.[moe]([m5C])p.[moe](A)[sp].d(A)[sp].d([m5C])[sp].d(A)[sp].d(G)[sp].d(T)[sp].d(T)[sp].d(T)[sp].d([m5C])[sp].d([m5C])[sp].d(A)[sp].[moe](T)p.[moe](A)p.[moe](A)[sp].[moe]([m5C])}$$$$ (last 3' nucleoside missing)”, with 1 score 0-7; and “RNA1{[moe](T)[sp].[moe](G)p.[moe](G)p.[moe]([m5C])p.[moe](A)[sp].d(G)[sp].d(T)[sp].d(A)[sp].d(T)[sp].d(T)[sp].d(A)[sp].d([m5C])[sp].d([m5C])[sp].[moe](T)p.[moe]([m5C])p.[moe](T)[sp].[moe](A)}$$$$ (last 3' nucleoside missing)”, with 0 score 0-7.
